{"source": "paper PMC4448987", "about": "“A neuroligin-1-derived peptide stimulates phosphorylation of the NMDA receptor NR1 subunit and rescues MK-801-induced decrease in long-term potentiation and memory impairment” (Pharmacology Research & Perspectives, 2015)", "key": {"[1]": {"tested_on": "NX-1β", "conditions": "ref Gjorlund et al. [2012]; cited from earlier work", "text": "(§1) We recently investigated the functional role of the NL1 B insert using a peptide, termed neurolide-1, that encompasses the NL1-binding site for NX1, including the B insert."}, "[2]": {"conditions": "in vivo intra-hippocampal treatment; ref van der Kooij et al. [2014]; cited from earlier work", "text": "as §1"}, "[3]": {"tested_on": "hippocampal neurons", "conditions": "NX-1β expression-dependent, in contrast to the peptide without the B insert; ref Gjorlund et al. [2012]; cited from earlier work", "text": "as §1"}, "[4]": {"tested_on": "hippocampal slices, CA3-CA1 synapse (fEPSP slope)", "assay": "LTP in acute hippocampal slices from mice injected s.c.", "format": "in vivo, C57BL/6N mice", "conditions": "mice injected with neurolide-1 10 mg/kg s.c. 24 h and 1 h before sacrifice plus MK-801 0.1 mg/kg s.c.; slope 25-30 min after HFS vs before; mean ± SEM, n = 6", "method": "Juvenile C57BL/6N mice of both sexes (postnatal day 16–24; Taconic, Ejby, Denmark) were injected subcutaneously (s.c.) with 10 mg/kg of the neurolide-1 peptide solution (10 mg/mL) and again 23 h later with 10 mg/kg of the neurolide-1 peptide solution (10 mg/mL) and 0.1 mg/kg MK-801 solution (0.025 mg/mL). Mice receiving the injection with the MK-801 solution only or untreated mice served as control groups. The young mice were rapidly and humanely euthanized with a minimum of distress by decapitation at a time point corresponding to 24 h after first injection. Preceding anesthetic was omitted to preserve the tissue free of drug residues and brain slice functions as unaltered as possible when performing the physiological measurements. After decapitation, the brain was removed. […]\nMeasurements were made in oxygenated aCSF at room temperature (1.1 mL/min). […] The field potential in the stratum radiatum of the CA1 area of the hippocampus was recorded with an extracellular glass microelectrode (4–6 MΩ, filled with aCSF), positioned at least 500 μm away from the stimulation electrode. […]"}, "[5]": {"tested_on": "hippocampal slices (LTP)", "assay": "LTP in acute hippocampal slices, peptide added directly to aCSF", "design": "species or system mice", "conditions": "neurolide-1 alone, 1 µmol/L added to running artificial CSF during baseline before LTP induction", "method": "Measurements were made in oxygenated aCSF at room temperature (1.1 mL/min). Schaeffer collaterals were stimulated with a bipolar concentric electrode (TM33CCNON; World Precision Instruments, Sarasota, FL). The field potential in the stratum radiatum of the CA1 area of the hippocampus was recorded with an extracellular glass microelectrode (4–6 MΩ, filled with aCSF), positioned at least 500 μm away from the stimulation electrode. The stimulus intensity was set 0.03 mA above the threshold. After a 30-min baseline was obtained with stimulation at 0.05 Hz, long-term potentiation (LTP) was induced by stimulating the Schaeffer collaterals at 100 Hz for 1 s four times at 20 s intervals. A new baseline was established over the following 30 min. Potentiation was estimated by comparing the rising slope of the field excitatory postsynaptic potential (fEPSP) before and 25–30 min after high-frequency stimulation.\nSupplementary file prp20003-e00126-sd2.tif: Figure S1. Effect of neurolide-1 on LTP in acute hippocampal slices. Neurolide-1 at a concentration of 1 µmol/L was added directly to the running artificial CSF during baseline measurement before the induction of LTP.\nSupplementary Figure S1. Effect of neurolide-1 on LTP in acute hippocampal slices. Neurolide-1 at a concentration of 1 µM was added directly to the running artificial CSF during baseline measurement before the induction of LTP."}, "[6]": {"tested_on": "male Wistar rats", "assay": "Y maze test (spontaneous alternation)", "format": "in vivo, rat", "method": "NMDA-mediated effects of Neurolide-1 on spatial working memory performance was assessed by recording spontaneous alternation behavior in a Y maze test performed as described previously (Wegener et al. [2011]), (See Data S1). Initially, adult male Wister rats (420–490 g, n = 6–12; Charles River) were injected s.c., three times at 28, 4, and 2 h before start of the Y maze test. One group received Neurolide-1, saline, and neurolide-1 in this order. Another group received saline, MK-801, and saline in this order. A third group received neurolide-1, MK-801, and neurolide-1 in this order. And control group received saline at all times. In a second setup we tested the effect of neurolide-1 in very young male Wistar rats (4-weeks old) which received a s.c., injection of neurolide-1 or saline 2 h prior to testing them in the Y-maze (n = 11–15). Terminally, rats were rapidly and humanely rendered unconscious by concussive stunning and euthanized by cervical dislocation.\nThe maze was made of gray polyvinyl chloride, with three identical arms (425 mm length × 225 mm height × 145 mm width) mounted symmetrically to an equilateral triangular center section. Each rat was placed at the end of one arm and allowed to explore the apparatus freely for 8 min. The sequence and number of all arm entries were recorded for each animal throughout the testing period. An alternation was defined as entries into all three arms on consecutive occasions. Therefore, the number of maximal alternation was the total number of arm entries minus 2, and the percentage of alternation was calculated as (actual alternations / maximal alternations) × 100. The total number of arms entered during the sessions was also determined (Yamaguchi et al, 2006). Data were eliminated in cases in which the number of total arm entries was less than 10 or when the rat escaped from the Y maze. After each trial, the Y maze was cleaned with 1% Virkon S (Pharmaxim, Helsingborg, Sweden)."}, "[7]": {"conditions": "4-week-old male Wistar rats, single s.c. treatment 2 h before test, n = 11-15"}}}
{"sequence": "SEGNRWSNSTKGLFQRA [neurolide-1]", "values": [{"measurement": "binding to NX-1β", "setting": "[1]", "result": "bind NX-1β"}, {"measurement": "sociability and aggression", "setting": "[2]", "result": "did not demonstrate such effects"}, {"measurement": "neurite outgrowth in hippocampal neurons", "setting": "[3]", "result": "induce neurite outgrowth"}, {"measurement": "increase of fEPSP slope after high-frequency stimulation (LTP)", "setting": "[4]", "result": "57 ± 12", "unit": "%"}, {"measurement": "effect on LTP, direct treatment of hippocampal slices", "setting": "[5]", "result": "did not affect LTP"}, {"measurement": "alternation rate in 4-week-old rats", "setting": "[6]; [7]", "result": 76, "unit": "%"}, {"measurement": "total number of arms visited in 4-week-old rats", "setting": "[6]; [7]", "result": "slightly decreased the total number of arms visited"}, {"measurement": "working memory performance (alternation rate), peptide alone", "setting": "[6]; adult rats 420-490 g, neurolide-1 10 mg/kg s.c. 24 and 2 h before test, n = 6-12", "result": "did not affect performance"}, {"measurement": "total number of arm entries, combined treatment neurolide-1 + MK-801", "setting": "[6]; adult rats, neurolide-1 10 mg/kg s.c. twice plus MK-801 0.1 mg/kg, n = 6-12", "result": "significantly increased the total number of arms visited"}, {"measurement": "working memory (alternation rate) in MK-801-treated animals", "setting": "[6]; adult rats, neurolide-1 10 mg/kg s.c. twice, MK-801 0.1 mg/kg 2 h before second neurolide-1 injection, n = 6-12", "result": "partially restored working memory"}, {"measurement": "total number of arm entries, single treatment", "setting": "[6]; adult rats, peptide alone or MK-801 alone, n = 6-12", "result": "did not change"}]}
